Activity calls are given as the source filed them. No cut-off for these calls is given here.
Experiments:
[1] = Modulation of gamma-secretase expressed in CHO cells co-expressing human APP and wild type human presenilin-1 assessed as inhibition of amyloid beta42 production by ELISA; format: cell-based
CHO [2] = test: Cytotoxicity against CHO cells expressing human APP and wild type human presenilin-1 assessed as reduction of cell viability up to 40 uM after 24 hrs by Alamar blue assay; format: cell-based, Cricetulus griseus; conditions: chinese hamster
[3] = target: T1, Peroxisome proliferator-activated receptor gamma (Homo sapiens) (UniProt P37231); test: Modulation of human PPARgamma-LBD expressed in african green monkey COS7 cells co-transfected with Gal4 assessed as activation of transactivation activity by luciferase assay relative to pioglitazone; format: cell-based; conditions: COS-7
T1 sequence (whole entry): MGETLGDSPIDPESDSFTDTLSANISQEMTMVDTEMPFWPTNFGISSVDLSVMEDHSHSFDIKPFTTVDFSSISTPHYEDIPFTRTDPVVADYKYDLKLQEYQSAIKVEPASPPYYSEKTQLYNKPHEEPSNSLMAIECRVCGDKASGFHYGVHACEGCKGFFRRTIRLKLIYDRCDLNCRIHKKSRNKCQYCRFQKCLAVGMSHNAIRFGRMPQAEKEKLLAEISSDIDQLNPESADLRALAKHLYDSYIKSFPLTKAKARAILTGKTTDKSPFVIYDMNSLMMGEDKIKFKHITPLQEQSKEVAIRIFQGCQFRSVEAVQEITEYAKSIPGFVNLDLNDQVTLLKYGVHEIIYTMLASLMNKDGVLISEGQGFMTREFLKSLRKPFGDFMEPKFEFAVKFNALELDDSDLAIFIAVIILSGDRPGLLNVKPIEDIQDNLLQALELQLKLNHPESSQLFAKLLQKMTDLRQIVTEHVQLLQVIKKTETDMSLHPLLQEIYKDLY

[4] = Modulation of gamma-secretase expressed in CHO cells co-expressing human APP and wild type human presenilin-1 assessed as increase of amyloid beta38 production by ELISA; format: cell-based
[5] = target: T2, Prostaglandin G/H synthase 1 (Ovis aries) (UniProt P05979); test: Inhibition of ovine COX-1 assessed as residual activity by measuring formation of 12-HHT from arachidonic acid at 10 uM by HPLC analysis
T2 sequence (whole entry): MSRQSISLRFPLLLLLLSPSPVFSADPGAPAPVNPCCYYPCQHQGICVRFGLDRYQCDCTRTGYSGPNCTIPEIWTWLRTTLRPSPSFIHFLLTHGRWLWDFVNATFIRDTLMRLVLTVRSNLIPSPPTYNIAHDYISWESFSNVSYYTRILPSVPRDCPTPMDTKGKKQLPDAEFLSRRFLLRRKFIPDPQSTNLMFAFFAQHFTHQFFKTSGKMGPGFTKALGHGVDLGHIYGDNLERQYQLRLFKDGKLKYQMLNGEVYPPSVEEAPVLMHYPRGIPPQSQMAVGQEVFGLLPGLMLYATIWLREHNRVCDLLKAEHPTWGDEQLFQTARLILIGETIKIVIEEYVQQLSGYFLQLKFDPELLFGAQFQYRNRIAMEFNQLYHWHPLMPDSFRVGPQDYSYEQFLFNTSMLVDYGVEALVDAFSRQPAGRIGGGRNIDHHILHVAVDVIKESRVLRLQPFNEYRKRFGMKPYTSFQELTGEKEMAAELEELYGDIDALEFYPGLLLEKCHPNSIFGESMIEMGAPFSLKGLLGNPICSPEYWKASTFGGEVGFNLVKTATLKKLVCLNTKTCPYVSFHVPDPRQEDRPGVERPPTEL

[6] = target: T3, Prostaglandin G/H synthase 2 (Homo sapiens) (UniProt P35354); test: Inhibition of human recombinant COX-2 assessed as residual activity by measuring formation of 12-HHT from arachidonic acid at 10 uM by HPLC analysis
T3 sequence (whole entry): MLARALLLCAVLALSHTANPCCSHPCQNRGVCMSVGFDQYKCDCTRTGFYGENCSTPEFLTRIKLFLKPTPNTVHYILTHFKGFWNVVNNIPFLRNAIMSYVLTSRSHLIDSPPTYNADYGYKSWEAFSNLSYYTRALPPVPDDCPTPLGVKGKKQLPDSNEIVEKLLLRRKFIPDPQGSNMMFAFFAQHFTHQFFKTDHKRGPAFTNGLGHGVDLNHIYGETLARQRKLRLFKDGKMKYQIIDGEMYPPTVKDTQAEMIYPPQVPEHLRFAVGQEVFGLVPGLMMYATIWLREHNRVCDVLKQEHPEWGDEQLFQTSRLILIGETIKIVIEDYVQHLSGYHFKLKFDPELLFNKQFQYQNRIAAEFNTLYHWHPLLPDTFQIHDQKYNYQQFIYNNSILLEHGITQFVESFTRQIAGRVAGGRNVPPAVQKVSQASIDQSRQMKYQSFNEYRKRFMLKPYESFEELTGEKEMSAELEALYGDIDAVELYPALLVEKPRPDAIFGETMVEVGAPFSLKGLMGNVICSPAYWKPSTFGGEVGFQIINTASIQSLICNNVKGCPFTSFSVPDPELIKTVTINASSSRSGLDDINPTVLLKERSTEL

[7] = target: T4, Peroxisome proliferator-activated receptor delta (Homo sapiens) (UniProt Q03181); test: Modulation of human PPARdelta-LBD expressed in african green monkey COS7 cells co-transfected with Gal4 assessed as activation of transactivation activity at 10 uM by luciferase assay; format: cell-based; conditions: COS-7
T4 sequence (whole entry): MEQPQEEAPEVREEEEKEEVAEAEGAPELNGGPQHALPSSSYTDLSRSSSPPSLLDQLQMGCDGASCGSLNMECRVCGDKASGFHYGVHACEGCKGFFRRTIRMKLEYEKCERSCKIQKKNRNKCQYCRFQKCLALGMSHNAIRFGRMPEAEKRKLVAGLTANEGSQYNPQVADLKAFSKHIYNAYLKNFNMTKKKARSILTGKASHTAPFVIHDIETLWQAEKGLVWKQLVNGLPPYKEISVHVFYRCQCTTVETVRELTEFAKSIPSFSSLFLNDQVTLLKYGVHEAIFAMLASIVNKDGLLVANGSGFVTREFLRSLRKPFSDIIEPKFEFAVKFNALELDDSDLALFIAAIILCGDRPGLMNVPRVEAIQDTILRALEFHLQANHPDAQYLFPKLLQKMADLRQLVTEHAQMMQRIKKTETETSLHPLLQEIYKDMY

[8] = target: T5, Peroxisome proliferator-activated receptor alpha (Homo sapiens) (UniProt Q07869); test: Modulation of human PPARalpha-LBD expressed in african green monkey COS7 cells co-transfected with Gal4 assessed as activation of transactivation activity at 10 uM by luciferase assay; format: cell-based; conditions: COS-7
T5 sequence (whole entry): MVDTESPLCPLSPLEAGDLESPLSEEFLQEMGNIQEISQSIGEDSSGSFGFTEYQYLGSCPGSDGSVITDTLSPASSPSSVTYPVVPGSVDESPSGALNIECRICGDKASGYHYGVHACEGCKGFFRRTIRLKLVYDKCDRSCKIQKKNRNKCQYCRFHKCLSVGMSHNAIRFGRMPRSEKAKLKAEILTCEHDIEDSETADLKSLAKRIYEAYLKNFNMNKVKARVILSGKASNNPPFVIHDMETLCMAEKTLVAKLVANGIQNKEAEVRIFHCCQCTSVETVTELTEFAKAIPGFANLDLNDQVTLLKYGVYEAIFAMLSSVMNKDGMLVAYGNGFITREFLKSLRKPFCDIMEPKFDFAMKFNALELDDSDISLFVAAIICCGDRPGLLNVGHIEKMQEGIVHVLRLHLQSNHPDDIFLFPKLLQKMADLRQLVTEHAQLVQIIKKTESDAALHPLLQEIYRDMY

[9] = target: T6, Peroxisome proliferator-activated receptor gamma (Homo sapiens, UniProt P37231); test: Modulation of human PPARgamma-LBD expressed in african green monkey COS7 cells co-transfected with Gal4 assessed as activation of transactivation activity by luciferase assay; format: cell-based, COS-7
T6 sequence (P37231 whole entry): T1 sequence (whole entry)

[10] = target: T1, Peroxisome proliferator-activated receptor gamma (Homo sapiens); test: Modulation of human PPARgamma-LBD expressed in african green monkey COS7 cells co-transfected with Gal4 assessed as activation of transactivation activity at 10 uM by luciferase assay; format: cell-based; conditions: COS-7
[11] = Selectivity ratio of inhibition of gamma-secretase-mediated notch signaling to modulation of gamma-secretase
CHO [12] = test: Inhibition of gamma-secretase-mediated notch signaling expressed in CHO cells transfected with Gal4-DNA-binding/VP16 transactivation domain assessed as reduction of reporter activity up to 30 uM by luciferase assay; format: cell-based

Row | SMILES | IC50 [1] [µM] | Emax [3] [%] | EC50 [4] [µM] | Activity [5] [%] | Activity [6] [%] | Activity [7] | Activity [8] | EC50 [9] [µM] | Activity [10] [%] | Ratio [11] | Activity (CHO [2]) | inhibition (CHO [12])
1 | CCCCC(Cc1cc(OCCc2ccccc2)cc(OCCc2ccccc2)c1)C(=O)O (stereo not drawn) | 38.4 | 71 | 28.1 | 78.7 | 78.4 | inactive | inactive | 4.7 | – | – | Non-toxic | –
2 | CCCC/C(=C\c1cc(OCCC2CCCCC2)ccc1OCc1ccc(C(F)(F)F)cc1)C(=O)O | 2.7 | – | 2.5 | 92.3 | 106 | inactive | inactive | – | 27 | – | Non-toxic | –
3 | CCCC/C(=C\c1cc(OCCc2ccccc2)ccc1OCCc1ccccc1)C(=O)O | 15.4 | 47 | 6.7 | 68 | 94.4 | inactive | inactive | 1.8 | – | – | Non-toxic | –
4 | CCCC/C(=C\c1cc(OCCc2ccccc2)cc(OCCc2ccccc2)c1)C(=O)O | 37.9 | 95 | 27.3 | 81.4 | 81.4 | inactive | inactive | 7.8 | – | – | Non-toxic | –
5 | CCCCC(Oc1cc(OCCc2ccccc2)cc(OCCc2ccccc2)c1)C(=O)O (stereo not drawn) | 33.7 | 46 | 26.4 | 71.6 | 92.5 | inactive | inactive | 4.8 | – | – | Non-toxic | –
6 | CCCCC(Sc1cc(OCCc2ccccc2)cc(OCCc2ccccc2)c1)C(=O)O (stereo not drawn) | 32.7 | 73 | 22.2 | 71.3 | 110 | inactive | inactive | 3.4 | – | – | Non-toxic | –
7 | CCCC/C(=C\c1cc(OCCc2ccc(C(F)(F)F)cc2)ccc1OCCc1ccc(C(F)(F)F)cc1)C(=O)O | 2.4 | 86 | 1.6 | 81 | 102 | inactive | inactive | 7.2 | – | 8 | Non-toxic | inactive
8 | CCCCC(Cc1cccc(OCCc2ccccc2)c1OCCc1ccccc1)C(=O)O (stereo not drawn) | > 40 | 79 | > 40 | 66.1 | 89.6 | inactive | inactive | 3.7 | – | – | Non-toxic | –
9 | CCCCC(Sc1nc(OCCC2CCCCC2)cc(OCCC2CCCCC2)n1)C(=O)O (stereo not drawn) | 6 | – | – | – | – | – | – | – | – | – | Non-toxic | –
10 | CCCC/C(=C\c1cc(OCc2ccc(C(F)(F)F)cc2)ccc1OCc1ccc(C(F)(F)F)cc1)C(=O)O | 1.2 | – | 1.1 | 82.6 | 102 | inactive | inactive | – | 28 | – | Non-toxic | –

The next lines start with results.

Row | IC50 [1] [µM] | Emax [3] [%] | EC50 [4] [µM] | Activity [5] [%] | Activity [6] [%] | Activity [7] | Activity [8] | EC50 [9] [µM] | Activity [10] [%] | Ratio [11] | SMILES | Activity (CHO [2]) | inhibition (CHO [12])
11 | > 40 | 128 | > 40 | 82 | 96.6 | inactive | inactive | 1.5 | – | – | CCCCC(Cc1ccc(OCCc2ccccc2)c(OCCC2CCCCC2)c1)C(=O)O (stereo not drawn) | Non-toxic | –
12 | > 40 | 100 | > 40 | 95.8 | 86.4 | inactive | inactive | 2.2 | – | – | CCCCC(Cc1ccc(OCCc2ccccc2)c(OCCc2ccccc2)c1)C(=O)O (stereo not drawn) | Non-toxic | –
13 | > 40 | 61 | > 40 | 69.1 | 91.5 | inactive | inactive | 2.5 | – | – | CCCCC(Cc1ccc(OCCC2CCCCC2)c(OCCc2ccccc2)c1)C(=O)O (stereo not drawn) | Non-toxic | –
14 | 19.1 | 97 | 14.5 | 63.8 | 66.5 | inactive | inactive | 10.8 | – | – | CCCCC(Cc1cc(OCCc2ccccc2)ccc1OCCc1ccccc1)C(=O)O (stereo not drawn) | Non-toxic | –
15 | > 40 | 69 | > 40 | 73.8 | 79.1 | inactive | inactive | 1.1 | – | – | CCCCC(Cc1ccc(OCCC2CCCCC2)c(OCCC2CCCCC2)c1)C(=O)O (stereo not drawn) | Non-toxic | –

From ChEMBL document CHEMBL1817621, “SAR studies of acidic dual γ-secretase/PPARγ modulators” (Bioorg Med Chem, 2011)
